Measurements published in the CheMixHub viscosity set.

Test: xn = mol fraction of the nth substance listed
Conditions: 101 kPa

C[Si](C)(C)O[Si](C)(C)O[Si](C)(C)O[Si](C)(C)O[Si](C)(C)O[Si](C)(C)C + C[Si](C)(C)O[Si](C)(C)O[Si](C)(C)O[Si](C)(C)C
Conditions | viscosity [mPa·s]
298.15 K, x1 = 0.413 | 1.738

CC(=O)OC(C)C + Cc1cc(C)cc(C)c1
308.15 K
Conditions | viscosity [mPa·s]
x2 = 0.09942 | 0.4428
x2 = 0.197 | 0.4556
x2 = 0.3029 | 0.4738
x2 = 0.3917 | 0.4812
x2 = 0.4993 | 0.5032
x2 = 0.5992 | 0.5127
x2 = 0.6918 | 0.5289
x2 = 0.7944 | 0.539
x2 = 0.9024 | 0.5596

CCCCBr + Cc1cc(C)cc(C)c1
308.15 K
Conditions | viscosity [mPa·s]
x2 = 0.0991 | 0.5234
x2 = 0.1968 | 0.5242
x2 = 0.3043 | 0.5299
x2 = 0.406 | 0.5323
x2 = 0.4969 | 0.5372
x2 = 0.5975 | 0.5416
x2 = 0.7014 | 0.5482
x2 = 0.7972 | 0.5513
x2 = 0.8984 | 0.5568

CC(=O)OC(C)C + Cc1ccc(C)cc1
viscosity [mPa·s]
Conditions | 303.15 K | 308.15 K | 313.15 K
x1 = 0.0984 | 0.554 | – | 0.502
x1 = 0.2017 | 0.541 | – | 0.489
x1 = 0.3126 | 0.527 | – | 0.476
x1 = 0.4038 | 0.515 | – | 0.465
x1 = 0.5039 | 0.505 | – | 0.455
x1 = 0.6015 | 0.495 | – | 0.446
x1 = 0.7028 | 0.487 | – | 0.437
x1 = 0.8113 | 0.477 | – | 0.427
x1 = 0.9523 | 0.464 | – | 0.417
x2 = 0.1061 | – | 0.4401 | –
x2 = 0.2201 | – | 0.4568 | –
x2 = 0.2975 | – | 0.4636 | –
x2 = 0.3892 | – | 0.4726 | –
x2 = 0.4985 | – | 0.4819 | –
x2 = 0.5821 | – | 0.4898 | –
x2 = 0.696 | – | 0.5019 | –
x2 = 0.7973 | – | 0.5123 | –
x2 = 0.8976 | – | 0.5215 | –

CC(=O)OCC(C)C + Cc1ccc(C)cc1
viscosity [mPa·s]
Conditions | x1 = 0.1104 | x1 = 0.1976 | x1 = 0.2789 | x1 = 0.376 | x1 = 0.4687 | x1 = 0.5742 | x1 = 0.6833 | x1 = 0.7765 | x1 = 0.8703 | x1 = 0.9481
303.15 K | 0.569 | 0.572 | 0.577 | 0.582 | 0.588 | 0.596 | 0.605 | 0.614 | 0.622 | 0.63
313.15 K | 0.511 | 0.512 | 0.514 | 0.516 | 0.519 | 0.526 | 0.536 | 0.547 | 0.558 | 0.57

CCCCBr + Cc1ccc(C)cc1
308.15 K
Conditions | viscosity [mPa·s]
x2 = 0.1002 | 0.5174
x2 = 0.2 | 0.5139
x2 = 0.2996 | 0.5114
x2 = 0.3997 | 0.5104
x2 = 0.4329 | 0.5092
x2 = 0.6161 | 0.5084
x2 = 0.7006 | 0.5095
x2 = 0.7996 | 0.5107
x2 = 0.8946 | 0.5121
